# Data reported in patent US20220241249A1, “PHARMACEUTICAL COMPOSITION AND KIT CONTAINING NOVEL PENAM DERIVATIVE OR SALT THEREOF AND ONE OR MORE COMPOUNDS SELECTED FROM beta-LACTAMASE INHIBITORY COMPOUND AND ANTIBACTERIAL COMPOUND OR SALTS THEREOF” (priority 2019, published 2022).
# Legend:
# [1] = system: Klebsiella pneumoniae Y-1020 strain producing KPC-3 and SHV-12 (strain B); assay: MIC of test compound alone or with β-lactamase inhibitor at 4 μg/mL; type: cell-based; settings: for MIC: Klebsiella pneumoniae, Strain B
# Protocol: (§1) By using a broth microdilution method, the combinational effect of a test compound and a β-lactamase inhibitor was evaluated.
# (§2) The evaluation test for antibacterial activity was performed in the same manner as in Test Example 1.
# [2] = system: Escherichia coli TK-1765 strain producing CMY-2 (strain E); assay: as above; type: cell-based; settings: Escherichia coli
# Protocol: as §1, §2
# Escherichia coli TK-1765 strain producing CMY-2 (hereinafter, called strain E)
# [3] = system: Klebsiella pneumoniae Y-1133 strain producing NDM-1, OXA-48, and CTX-M-15 (strain C); assay: as above; type: cell-based; settings: Klebsiella pneumoniae
# Protocol: as §1, §2
# Klebsiella pneumoniae Y-1133 strain producing NDM-1, OXA-48, and CTX-M-15 (hereinafter, called strain C),
# An antibacterial activity evaluation test was performed in the same manner as in Test Example 6.
# As the bacterial strain, the strains B, C, and D producing β-lactamase and a Klebsiella pneumoniae Y-1069 strain (hereinafter, called strain F) producing OXA-48 and CTX-M-15 were used.
# [4] = system: multidrug-resistant Pseudomonas aeruginosa strain (S-2838 strain); assay: Test for protection against systemic infection in mouse with multidrug-resistant Pseudomonas aeruginosa; type: in vivo; settings: sc, 72 h, read-out: survival rate 3 days after the inoculation with bacteria
# Protocol: As mice, ICR male SPF mice (4 weeks old: 10 mice per group) were used. Clinically isolated multidrug-resistant Pseudomonas aeruginosa strain (S-2838 strain) cultured overnight on a Mueller-Hinton agar plate at 37° C. was cultured on a cation-adjusted Mueller Hinton medium for 5 hours, and then diluted 20-fold with a 10% mucin/phosphate buffer, thereby preparing an inoculum. An infection was induced by intraperitoneally inoculating the mice with the inoculum at 0.5 mL (about 10^6 CFU/mouse). Each test compound was dissolved in physiological saline, and 1 hour after the infection, the compound was subcutaneously administered once to the mice at 40 mg/kg. The control group was administered with the same amount of physiological saline used as a vehicle. The number of surviving mice was recorded 3 days after the infection.
# A test for protection against systemic infection in a mouse with multidrug-resistant Pseudomonas aeruginosa was performed in the same manner as in Test Example 2.
# [5] = system: Klebsiella pneumoniae ATCC13883 strain (Klebsiella pneumoniae A); assay: Combinational effect of test compound and antibacterial compound, checkerboard FIC index; type: cell-based
# Protocol: (§3) By using a broth microdilution method, the combinational effect of antibacterial activity of a test compound and an antibacterial compound was evaluated.
# (§4) As bacterial strains, an Escherichia coli ATCC25922 strain (hereinafter, called Escherichia coli A), a Klebsiella pneumoniae ATCC13883 strain (hereinafter, called Klebsiella pneumoniae A), and a Pseudomonas aeruginosa ATCC27853 strain (hereinafter, called Pseudomonas aeruginosa A) were used.
# (§5) The minimum inhibitory concentration (hereinafter, called MIC) was measured according to the Clinical and Laboratory Standards Institute (CLSI) standard method by using the following broth microdilution method.
# (§6) The bacterial cells that had been cultured overnight on a Mueller Hinton agar medium were scraped off, suspended at a density equivalent to 0.5 McFarland standard. The obtained suspension was diluted at 10 fold, thereby obtaining an inoculum. Cation-adjusted Mueller Hinton media containing only a test compound, containing only an antibacterial compound, or containing a test compound and an antibacterial compound were inoculated with 0.005 mL of the inoculum, and the cells were cultured at 35° C. for 18 to 20 hours. The minimum drug concentration at which the growth of bacteria was not visually observed was defined as MIC (μg/mL).
# (§7) The FIC Index is the minimum value calculated by the following formula.
# (§8) FIC Index=(MIC value obtained in a case where test compound is used in combination/MIC value obtained in a case where test compound is used alone)+(MIC value obtained in a case where antibacterial compound is used in combination/MIC value obtained in a case where antibacterial compound is used alone)
# (§9) In a case where the FIC Index was 0.5 or less, it was decided that the use of two drugs in combination brings about a synergistic effect.
# (§10) In a case where the FIC Index was more than 0.5 and 1 or less, it was decided that the use of two drugs in combination brings about an additive effect. (Diagnostic Microbiology and Infectious Disease, 2004, Vol. 49, p. 197)
# [6] = system: Pseudomonas aeruginosa ATCC27853 strain (Pseudomonas aeruginosa A); assay: as above; type: cell-based; settings: for FIC index: Pseudomonas aeruginosa A, checkerboard
# Protocol: as §3, §4, §5, §6, §7, §8, §9, §10
# [7] = system: Escherichia coli TK-1747 strain producing CTX-M-15 (strain A); assay: MIC of test compound alone or with β-lactamase inhibitor at 4 μg/mL; type: cell-based; settings: Escherichia coli
# Protocol: as §1, §2
# Escherichia coli TK-1747 strain producing CTX-M-15 (hereinafter, called strain A),
# [8] = test compound alone (β-lactamase inhibitor N/A)
smiles,measurement,setting,value
"CC(C)(O/N=C(\C(=O)NC1C(=O)N2C[C@@](C(=O)O)(N3CCN(NC(=O)C(=O)c4ccc(O)c(O)c4Cl)C(=O)C3=O)S[C@H]12)c1csc(N)n1)C(=O)O (stereo partly drawn) [Example 126, (3R,5R,6R)-6-((Z)-2-(2-aminothiazol-4-yl)-2-(((2-carboxypropan-2-yl)oxy)imino)aceta-mido)-3-(4-(2-(2-chloro-3,4-dihydroxy-phenyl)-2-oxoaceta-mido)-2,3-dioxopipera-zin-1-yl)-7-oxo-4-thia-1-azabicyclo[3.2.0]-heptane-3-carboxylic acid]",MIC,[1]; AVI added at 4 μg/mL,1 µg/mL
same,MIC,[1]; NAC added at 4 μg/mL,0.12 µg/mL
same,MIC,[1]; ZID added at 4 μg/mL,0.03 µg/mL
same,MIC,[1]; [8],4 µg/mL
same,antibacterial activity in combination with a β-lactamase inhibitor versus without,"[1]; for all the bacterial strains (strains A to E), summary of Tables 43 to 47",higher antibacterial activity
same,MIC,[2]; [8],2 µg/mL
same,MIC,[2]; with AVI at 4 μg/mL,0.25 µg/mL
same,MIC,[2]; with TAZ at 4 μg/mL,1 µg/mL
same,MIC,[2]; with VAB at 4 μg/mL,0.5 µg/mL
same,MIC,[3]; AVI added at 4 μg/mL,0.5 µg/mL
same,MIC,[3]; NAC added at 4 μg/mL,0.03 µg/mL
same,MIC,[3]; ZID added at 4 μg/mL,< 0.015 µg/mL
same,MIC,[3]; [8],1 µg/mL
same,responders at 40 mg/kg,[4],≥ 90%
same,FIC index,[5]; in combination with AMK,0.75
same,FIC index,[5]; in combination with CAZ,0.625
same,FIC index,[5]; in combination with IPM,0.375
same,FIC index,[5]; in combination with LVFX,0.75
same,FIC index,[5]; in combination with MPC,0.188
same,FIC index,[5]; in combination with PIPC,<0.5
same,FIC index,[5]; in combination with PL-B,0.625
same,FIC index,[5]; in combination with RFP,0.563
same,FIC index,[5]; in combination with VCM,<0.625
same,FIC index,[6]; in combination with AMK,0.5
same,FIC index,[6]; in combination with CAZ,0.563
same,FIC index,[6]; in combination with IPM,0.188
same,FIC index,[6]; in combination with LVFX,0.188
same,FIC index,[6]; in combination with PIPC,0.75
same,FIC index,[6]; in combination with PL-B,0.188
same,FIC index,[6]; in combination with RFP,0.375
same,FIC index,[6]; in combination with TC,0.25
same,FIC index,[6]; in combination with VCM,0.266
same,combinational effect with other antibacterial compounds,"[6]; main strains of Gram-negative bacteria, summary of Tables 40 to 42",additive or synergistic effect
same,MIC,[7]; AVI added at 4 μg/mL,0.03 µg/mL
same,MIC,[7]; CVA added at 4 μg/mL,0.03 µg/mL
same,MIC,[7]; NAC added at 4 μg/mL,0.03 µg/mL
same,MIC,[7]; SBT added at 4 μg/mL,0.06 µg/mL
same,MIC,[7]; TAZ added at 4 μg/mL,0.06 µg/mL
same,MIC,[7]; ZID added at 4 μg/mL,< 0.015 µg/mL
same,MIC,[7]; [8],0.12 µg/mL
